According to publication PMC9520775, “Everolimus pharmacokinetics and exposure-response relationship in Japanese patients with advanced breast cancer” (Frontiers in Pharmacology, 2022):
Read-outs that look alike come from different tables or passages of the source.

Columns and labels:
breast cancer patients = test system: breast cancer patients; design: method as in Ito et al., 2015; details: Japanese population in the BOLERO-2 study; ref Ito et al., 2015; cited from earlier work
[1] = cited from earlier work
[2] = design: method as in Miesner et al. (2016); details: kidney cancer patient, 10 mg everolimus, concomitant clarithromycin 500 mg twice daily for 12 days, acute renal failure; ref Miesner et al. (2016); cited from earlier work
[3] = Everolimus whole blood concentrations and Bayesian estimation of PK parameters and trough concentrations; format: in vivo, human; details: for trough concentration estimate at grade 2 stomatitis: person
Description: Whole blood samples for the everolimus assay were collected at least two weeks after initiation of treatment or after the last everolimus dose change. Blood samples were collected at pre-dose, 1, 4, and 8 h after the everolimus dose. Blood everolimus concentrations were measured using a latex agglutination turbidimetric immunoassay ([Mori et al., 2014]) for the samples collected during November 2015 to September 2016 (n = 10) and using electrochemiluminescence immunoassay ([Blackburn et al., 1991]) for the samples collected during October 2016 to November 2018 (n = 8). Since these two techniques are highly correlated, the measured results were considered to be the same (r = 0.972) ([Sasano et al., 2016]).
PK parameters such as clearance (CL) and volume of distribution were estimated using Bayesian analysis in MW/Pharm++ software (Mediware, Prague, Czech Republic) ([Fuchs et al., 2013]). […] Ka was fixed for all analyses due to the limited data to characterize the absorption. The PK parameters were allometrically scaled to body weight to account for the effect of body size differences according to the following formula: Pi=Ppop×(BWi/BWstandard)^power where Pi was the estimated PK parameter for individual i, Ppop was the typical population value of the PK parameters. BWstandard was the standard body weight of 70 kg. The power coefficient was 0.75 for CL and intercompartment clearance and 1 for volume of distribution of the central compartment and the peripheral compartment.
Everolimus concentrations at steady-state or at the time of occurrence of dose-limiting toxicity was estimated using the Bayesian-estimated PK parameters of the individual patient.

[4] = patients with breast, kidney and neuroendocrine cancer, ref Deppenweiler et al. (2017)
[5] = five patients who did not experience DLTs

steady-state trough concentrations at the starting dose, range ([3]; 5 mg starting dose, six patients, approximated with Bayesian-estimated PK parameters): 11.3 to 29.6 ng/mL
estimated steady-state trough concentration when the dose was reduced and maintained without DLT, range ([3]; 13 patients who had DLTs): 5.7 to 24.2 ng/mL
median estimated steady-state trough concentration when the dose was reduced and maintained without DLT ([3]; 13 patients who had DLTs): 8.3 ng/mL
estimated trough concentration at the time of the DLTs, range ([3]; 13 patients with DLTs): 11.3 to 64.6 ng/mL
median estimated trough concentration at the time of the DLTs ([3]; 13 patients with DLTs): 19.0 ng/mL
CL, Mean ([3]; Bayesian estimate, steady state, Japanese breast cancer patients n = 18, scaled to 70 kg): 11.7 L/h/70 kg
estimated trough concentration after dose reduction ([3]; all patients except in one patient): higher than 6 ng/ml
steady-state trough concentration after restarting the treatment ([3]; case Figure 3A, 5 mg once daily, no DLTs): 8.4 ng/mL
trough concentration estimate at grade 2 stomatitis ([3]; case Figure 3A, 10 mg once daily, two weeks after initiation): 16.8 ng/mL
steady-state trough concentration after everolimus dose reduction ([3]; case Figure 3B, 5 mg every alternate day): 9.2 ng/mL
trough concentration estimate at grade 2 stomatitis ([3]; case Figure 3B, 5 mg once daily, day 90): 29.6 ng/mL
trough concentration, median [3, 5]: 19.0 ng/mL
trough concentration, range [3, 5]: 12.8 to 33.2 ng/mL
clearance (CL), range ([3]; inter-individual range, n = 18): 5.1–21.3 L/h/70 kg
volume of distribution of the central compartment, range ([3]; inter-individual range, n = 18): 9.9–103.6 L/70 kg
dose-adjusted trough concentrations, range ([3]; whole blood, steady state, doses 10, 5, 2.5 mg/day or 5 mg every alternate day): 1.3 to 6.5 ng/mL/mg/day
Compound: CO[C@H]1C[C@@H]2CC[C@@H](C)[C@@](O)(O2)C(=O)C(=O)N2CCCC[C@H]2C(=O)O[C@H]([C@H](C)C[C@@H]2CC[C@@H](OCCO)[C@H](OC)C2)CC(=O)[C@H](C)/C=C(\C)[C@@H](O)[C@@H](OC)C(=O)[C@H](C)C[C@H](C)/C=C/C=C/C=C/1C [everolimus]
median PFS (breast cancer patients): 8.5 months
suggested target trough concentration ([1]; kidney transplant patients, calcineurin-inhibitor-free regimen, ref Shipkova et al., 2016): 6 to 10 ng/mL
trough concentration associated with increased risk of progression [1, 4]: lower than 11.9 ng/ml
trough concentration associated with increased risk of toxicity [1, 4]: higher than 26.3 ng/ml
trough concentration threshold for increased risk of overall severe toxicity ([1]; review, ref Falkowski and Woillard (2019)): higher than 20 ng/ml
increase of risk of toxicity ([1]; trough concentrations higher than 26.3 ng/ml, ref Deppenweiler et al. (2017)): 4 fold
increase of risk of progression ([1]; trough concentrations lower than 11.9 ng/ml, ref Deppenweiler et al. (2017)): 3 fold
suggested target trough concentration ([1]; tuberous sclerosis, ref Combes et al., 2018): 5 to 15 ng/mL
trough level of everolimus [2]: 110 ng/mL
